The results in this text go back to US9732037B2, “2-aminopyridine-based selective neuronal nitric oxide synthase inhibitors” (Northwestern University, priority 2013, dated 2017).

Molecules are shown by their SMILES.

What all share (type): biochemical
One test has as its target rat nNOS (Rattus norvegicus (Rat), UniProt P29476). The experiment in a line: NOS inhibition assay, nNOS. The conditions noted are these: KM 1.3 μM, Ki = IC50/(1 + [S]/KM).
The target of another test is bovine eNOS (Bos taurus (Bovine), UniProt P29473). In words: NOS inhibition assay, eNOS. The conditions noted are these: for Ki: bovine eNOS, KM 1.7 μM, Ki = IC50/(1 + [S]/KM); for Selectivity e/n: ratio of Ki (eNOS) to nNOS.
For a further test, the target named is murine iNOS (Mus musculus (Mouse), UniProt P29477). In words: NOS inhibition assay, iNOS. The conditions noted are these: for Ki: murine iNOS, KM 8.2 μM, Ki = IC50/(1 + [S]/KM); for Selectivity i/n: ratio of Ki (iNOS) to nNOS.

Text for bovine eNOS: (§1) Nitric oxide formation from NOS was monitored using literature techniques.
Text for murine iNOS: as §1
Text for rat nNOS: as §1

`Cc1cc(N)nc(COC[C@@H]2C[C@@H](OCc3cc(C)cc(N)n3)CN2)c1` [Compound 6]: the Ki on rat nNOS is 26 nM; on bovine eNOS, 2180 nM; at murine iNOS it was 2270 nM. In addition, on bovine eNOS, the Selectivity e/n amounted to 84. Further, the Selectivity i/n at murine iNOS was 87.

`Cc1cc(N)nc(COCCOC[C@H]2C[C@@H](OCc3cc(C)cc(N)n3)CN2)c1` [Compound 11]: the Ki came to 199 nM at rat nNOS, 9300 nM at bovine eNOS and 13600 nM at murine iNOS. Moreover, the Selectivity e/n on bovine eNOS was 46. For the same molecule, the Selectivity i/n on murine iNOS was determined as 68.

Consider `Cc1cc(N)nc(COC[C@H]2C[C@@H](OCc3cc(C)cc(N)n3)CN2)c1` [Compound 7], for which the Ki on rat nNOS is 34 nM. At bovine eNOS, the Ki came to 3470 nM and the Selectivity e/n is listed as 102. Besides, at murine iNOS, the Ki was 5590 nM and the Selectivity i/n was found to be 164.

Turning to `Cc1cc(N)nc(CO[C@H]2CN[C@@H](COCCOCc3cccc(F)c3)C2)c1` [Compound 13], the results for the Ki on rat nNOS, on bovine eNOS and at murine iNOS were 330 nM, 11700 nM and 8470 nM, respectively. At bovine eNOS, the Selectivity e/n was 35. For the same molecule, the Selectivity i/n at murine iNOS came out at 26.

Regarding `Cc1cc(N)nc(COCCOC[C@@H]2C[C@@H](OCc3cc(C)cc(N)n3)CN2)c1` [Compound 10], at rat nNOS, the Ki is 70 nM. Moreover, at bovine eNOS, the inhibition constant Ki worked out at 6250 nM and the Selectivity e/n is on record as 89. At murine iNOS, the Ki stood at 2320 nM and the Selectivity i/n amounted to 33.

As for `Cc1cc(N)nc(COc2cccc(OCC3CCNCC3)c2)c1` [Compound 3], the Ki worked out at 117 nM on rat nNOS, 28000 nM at bovine eNOS and 17100 nM on murine iNOS.

As for `Cc1cc(N)nc(COC[C@H]2C[C@H](OCc3cc(C)cc(N)n3)CN2)c1` [Compound 9], the Ki at rat nNOS was 10 nM. Moreover, at bovine eNOS, the Ki stood at 6930 nM and the Selectivity e/n turned out to be 693. At murine iNOS, the Ki turned out to be 2950 nM and the Selectivity i/n was 295.

Turning to `Cc1cc(N)nc(COc2cccc(OCc3ccncc3)c2)c1` [Compound 2], the Ki at rat nNOS was 616 nM; on bovine eNOS it was 62800 nM; at murine iNOS, 27100 nM.

Take `Cc1cc(N)nc(COC[C@@H]2C[C@H](OCc3cc(C)cc(N)n3)CN2)c1` [Compound 8]: the figures for the inhibitory constant (Ki) at rat nNOS, at bovine eNOS and on murine iNOS were 31 nM, 2360 nM and 1900 nM, respectively. Further, the Selectivity e/n at bovine eNOS was determined as 76. Further, the Selectivity i/n at murine iNOS is 61.

Turning to `Cc1cc(N)nc(CO[C@H]2CN[C@H](COCCOCc3cccc(F)c3)C2)c1` [Compound 12], the values for the Ki on rat nNOS, on bovine eNOS and at murine iNOS were 153 nM, 7960 nM and 5860 nM, respectively. For the same molecule, the Selectivity e/n on bovine eNOS is 52. Besides, the Selectivity i/n on murine iNOS worked out at 38.

With `Cc1cc(N)nc(COc2cccc(OCCCN)c2)c1` [Compound 1], the Ki was 60 nM on rat nNOS, 18000 nM at bovine eNOS and 8470 nM on murine iNOS.
